These results are taken from patent US8242086B2, “Methods and compositions for treating disorders caused by a deficiency in a gene product of a CLN gene” (Duke University, priority 2008, dated 2012).

Entries after “also recorded” stand apart in the source; their conditions may differ.

Assay [1] deals with CLN3-deficient (JNCL) cells. Kind of assay: Growth of CLN3-deficient (JNCL) cells treated with GalCer, Trypan blue dye exclusion. It counts as cell-based, human. How it is done:
Cell Culture. Lymphoblasts are grown at 37° C. and in 5% CO2 in RPMI 1640 medium (Sigma-Aldrich, St Louis, Mo.)/10% fetal bovine serum and 1% antibiotic/antimycotic. Immortalized lymphoblast cell lines originally obtained from JNCL and other NCL patients and normal donors, were used for all experiments. Fibroblasts from normal and mnd (CLN8-deficient) mice were also used. All JNCL lymphoblasts used are homozygous for the 1.02 kb deletion in the genomic DNA.
Treatment of CLN3-deficient (JNCL) cells with GalCer increases growth rates. 0.1 million CLN3−/− cells were plated per well in 6 well plates. harvested and counted at 24, 48, 72 and 96 hours. Numbers of viable cells were determined with Trypan blue dye exclusion.

For assay [2], the system named is CLN8 protein. Kind of assay: Protein-lipid overlay assay, CLN8 protein. It counts as binding. As to conditions: lysates from normal cells, custom made sphingostrips. How it is done:
(§1) Protein-lipid overlay assay. Membrane arrays (SPHINGOSTRIPS (Echelon Research Laboratories, Salt Lake City, Utah), or lipids were spotted on nitrocellulose membranes and dried for at least one hour. Membranes were blocked with 3% (wt/vol) Fatty Acid Free or FFA-BSA (Sigma-Aldrich, St. Louis, Mo.) in Tris-Buffered Saline Tween-20 (TBST) [150 mM NaCl/10 mM Tris.HCl (pH 8.0), and 0.1% (vol/vol) Tween-20] for 1 h at RT. Blocked membranes were incubated for 8 h at 4° C. with 2 mg/ml of total cell lysate.
(§2) Fibroblasts overexpressing CLN3p (AC1 cells) and JNCL fibroblasts were used for the GalCer-CLN3 binding assay. The membranes were then washed five times for 5 min each with TBST. After washing, membranes were incubated with anti-CLN3, CLN1, CLN2, CLN6 or CLN8-antibodies overnight at 1:1000 dilution, followed by additional washing and incubation with horseradish peroxidase-conjugated anti-rabbit IgG goat antibody for 1 h at RT. After a final washing, enhanced chemiluminescence was used to detect binding of NCL proteins to sphingolipids. Intensity values were computed with an ImageJ software program.
CLN1, CLN2, CLN6, CLN8 and CLN9 proteins also bind to lipids. […]

In assay [3] the test system is CLN3 knockdown NT2 cells. Kind of assay: Cell apoptosis rate in CLN3 knockdown NT2 cells, propidium iodide. As to conditions: GalCer 50 ng/ml, 3 days after transfection. In kind it is cell-based, human. How it is done:
(§3) Cell Culture and Cell Treatment. NT2 neuronal precursor cells (ATCC cat no. CRL 1973) were grown in DMEM supplemented with 1% sodium pyruvate, L-glutamine and antibiotics and incubated in 37 C and 5% CO2 for 3 days.
(§4) siRNA knockdown of CLN3 in NT2 cells. HS1 siRNA ([…]) for CLN3 knockdown was designed using BLOCK-iT RNA™ Designer (Invitrogen). […] siRNA and scrambled universal negative control siRNA oligonucleotides were transfected into wild type NT2 cells using Lipofectamine RNAiMax™ according to manufacturer's protocol. In brief, […] HS1 RNAi duplex or scrambled siRNA universal negative control were diluted in 50 μl DMEM medium without serum. Lipofectamine™ RNAiMAX was mixed gently before use, then 1 μl was diluted in 50 μl DMEM medium. The diluted RNAi duplexes were combined with the diluted Lipofectamine RNAiMAX and incubated for 10 minutes at room temperature. […]
Determination of cell apoptosis rate in CLN3 knockdown NT2 cells. 10^6 cells transfected with CLN3 siRNA or scrambled siRNA, either treated with 50 ng/ml of GalCer (Avanti Polar Lipids, inc.) or solvent, are suspended in 100 μl PBS, incubated with 100 μl/0.5 mg/ml PI, washed, placed on slides and viewed using a fluorescence microscope. […] Cells in three fields of vision were counted. Percentage of red staining-apoptotic cells/total cells was determined.

Assay [4] concerns CLN3 knockdown NT2 cells. The assay is described as follows: Cell proliferation rate in CLN3 knockdown NT2 cells, Trypan blue dye exclusion. It counts as cell-based, human. The note with it: GalCer 50 ng/ml, 3 days post-transfection. How it is done: as §3
as §4, with “temperature. The RNAi duplex-Lipofectamine™ RNAiMAX complexes were added to cells for a final RNA concentration of 10 nM.” for “temperature.”
Determination of cell proliferation rate in CLN3 knockdown NT2 cells. 4×10^5 cells transfected with CLN3 siRNA or scrambled siRNA, and treated or not treated with 50 ng/ml GalCer, were seeded and counted with Trypan blue dye exclusion. […]
NT2 cell proliferation and apoptosis rates. An equal number of NT2 cells was initially seeded and cell number determined at different time points with Trypan blue dye exclusion. […]

Assay [5] addresses T1, wild-type CLN3p (Homo sapiens, UniProt Q13286).
T1 construct: expressed in transfected cells; host or cells: fibroblasts overexpressing CLN3p (AC1 cells)
T1 sequence (Q13286 1-438): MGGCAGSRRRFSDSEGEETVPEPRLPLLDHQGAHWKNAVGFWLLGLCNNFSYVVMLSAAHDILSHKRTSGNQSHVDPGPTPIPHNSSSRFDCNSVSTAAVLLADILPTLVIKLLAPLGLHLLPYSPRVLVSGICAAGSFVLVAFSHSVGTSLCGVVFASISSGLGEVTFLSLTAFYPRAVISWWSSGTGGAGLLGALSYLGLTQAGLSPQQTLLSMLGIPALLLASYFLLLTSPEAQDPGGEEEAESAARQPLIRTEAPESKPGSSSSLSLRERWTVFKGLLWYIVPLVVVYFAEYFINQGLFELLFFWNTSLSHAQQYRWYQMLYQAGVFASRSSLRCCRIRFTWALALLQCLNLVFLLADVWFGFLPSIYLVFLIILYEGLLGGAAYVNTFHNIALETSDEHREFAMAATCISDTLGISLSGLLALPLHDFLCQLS
The assay is described as follows: Protein-lipid overlay assay, wild-type CLN3p. It counts as binding. As for the experimental part: as §1, §2
Binding of CLN3 to GalCer and sulfatide. Membranes impregnated with sphingolipids were overlaid with protein cell lysates from CLN3-overexpressing and JNCL cells. Anti-CLN3 antibody was used to evaluate binding. […] The signal for GalCer-wild-type CLN3p binding was weaker because the more polar sulfatide competes with the less polar GalCer for binding to wild-type CLN3p.

The subject of assay [6] is galactosylceramide transferase (GCT). The note with it: exogenous supplementation of GalCer; Rusyn E et al., 2008; cited from earlier work.

For the substance galactosylceramide [GalCer], the “growth of JNCL cells” value in assay [1] (GalCer 50 ng/ml, counted at 24, 48, 72 and 96 hours) was “restored growth”; in assay [1] (GalCer 100 ng/ml (doubled concentration)), “no effect”. Moreover, the “binding of CLN8 protein to lipid” value in assay [2] was “bind”. In assay [3], the “cell death (apoptosis) of CLN3-deficient NT2 cells” value was “significantly reduces cell death”. Also, the “growth of CLN3-deficient NT2 cells” value in assay [4] is “normalized growth; also recorded: corrects growth”. Further, the “binding of wild-type CLN3p to membrane spots impregnated with the lipid” value in assay [5] (lysate of CLN3-overexpressing cells, anti-CLN3 antibody) is given as “bind strongly”. In addition, the “binding of CLN3p to GalCer when sulfatide was omitted from the membrane” value in assay [5] (sulfatide omitted, dose dependent) was “stronger binding”. Besides, the “growth defect and increased apoptosis of GalCer synthase knockdown lymphoblasts” value in assay [6] is “remedied”.
